The target of test [1] is T1, NudF ADP-ribose pyrophosphatase (Escherichia coli, UniProt Q93K97).
T1 sequence (Q93K97 1-209): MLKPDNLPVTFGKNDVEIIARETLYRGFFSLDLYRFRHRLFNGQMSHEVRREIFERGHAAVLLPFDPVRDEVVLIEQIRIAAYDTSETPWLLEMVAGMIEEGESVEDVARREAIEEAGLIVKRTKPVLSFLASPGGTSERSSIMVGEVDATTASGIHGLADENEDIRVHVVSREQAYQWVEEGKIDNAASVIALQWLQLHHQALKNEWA
Nature of the test: NudF-mediated counterscreen of ADPr-Glo assay. It counts as biochemical. To be noted: NudF only with free ADP-ribose. (In general: A counterscreen serves to expose hits that act by an unwanted route or on another target.)

Test [2] deals with Mac1. As to conditions: cited from earlier work.
In test [3] the target is T2, SARS-CoV-2 Mac1 (Severe acute respiratory syndrome coronavirus 2, UniProt P0DTD1). The format is binding. As to conditions: for SARS CoV2 Mac1 Alpha (IC50): AlphaScreen ADP-ribose binding, IC50 ± SD of three replicates.
Test [4] has as its target T2, SARS-CoV-2 Mac1. It counts as biochemical. As to conditions: ADPr-Glo dose response, n = 2.
The subject of test [5] is panel of MAR binding proteins from viruses and humans.
Test [6] deals with T2, SARS-CoV-2 Mac1. The format is binding. As to conditions: DSF, 300 µM compound, ± SD of three replicates.

For the molecule `O=C(O)C1CCCN(c2ncnc3[nH]ccc23)C1` (centres unmarked) [Compound 6g, 1-(7H-pyrrolo[2,3–d]pyrimidin-4-yl)piperidine-3-carboxylic acid], the “activity in NudF-mediated counterscreen” value in test [1] is reported as “Neither compound demonstrated any activity”.

Turning to `Cc1ccc(C(=O)Nc2ccc(S(=O)(=O)O)c3cc(S(=O)(=O)O)cc(S(=O)(=O)O)c23)cc1NC(=O)c1cccc(NC(=O)Nc2cccc(C(=O)Nc3cc(C(=O)Nc4ccc(S(=O)(=O)O)c5cc(S(=O)(=O)O)cc(S(=O)(=O)O)c45)ccc3C)c2)c1` [Suramin], in test [2], the “stabilization of the protein in DSF assay” value is reported as “concentration dependent stabilization of the protein”.

For the molecule “Methyl (R)-4-(7H-pyrrolo[2,3–d]pyrimidin-4-yl)piperazine-2-carboxylate ●TFA [Compound 10b]”, the “SARS CoV2 Mac1 Alpha (IC50)” value in test [3] is on record as “Inactive”.

Turning to `c1ccc2c(CCNc3ncnc4[nH]ccc34)c[nH]c2c1` [Compound 20, N-(2-(1H-indol-3-yl)ethyl)-7H-pyrrolo[2,3–d]pyrimidin-4-amine], the “fold less potent than 15c” value in test [3] is given as “approximately 7 fold”.

Consider `O=C(O)CNc1ncnc2[nH]ccc12` [Compound 15d, (7H-pyrrolo[2,3–d]pyrimidin-4-yl)glycine], for which the “SARS CoV2 Mac1 Alpha (IC50)” value in test [3] is “did not demonstrate any inhibitory effect”.

`CC(C)C[C@H](Nc1ncnc2[nH]ccc12)C(=O)O` [Compound 15b, (7H-pyrrolo[2,3–d]pyrimidine-4-yl)-L-leucinate]: the “SARS CoV2 Mac1 Alpha (IC50)” value in test [3] was “completely inactive”.

Take `COC(=O)[C@@H]1CN(c2ncnc3[nH]ccc23)CCN1.O=C(O)C(F)(F)F` [Compound 10a, Methyl (S)-4-(7H-pyrrolo[2,3–d]pyrimidin-4-yl)piperazine-2-carboxylate ●TFA]: the “SARS CoV2 Mac1 Alpha (IC50)” value in test [3] is given as “Inactive”.

In the case of `O=C(O)[C@H](Cc1c[nH]c2ccccc12)Nc1ncnc2[nH]ccc12` [Compound 15c, (7H-pyrrolo[2,3–d]pyrimidin-4-yl)-L-tryptophan], in test [4], the “inhibition of Mac1 enzyme (ADP-ribosylhydrolase) activity” value is on record as “dose-dependent inhibition”. Also, the “activity in NudF-mediated counterscreen” value in test [1] is “Neither compound demonstrated any activity”. For the same molecule, in test [5], the “selectivity in panel of ADP-ribose binding proteins” value is on record as “remarkably selective for coronavirus macrodomains”.

As to `O=C(O)C1CCN(c2ncnc3[nH]ccc23)CC1` [Compound 6h, 1-(7H-pyrrolo[2,3–d]pyrimidin-4-yl)piperidine-4-carboxylic acid], the “fold improvement of potency over the initial fragment” value in test [3] (vs fragment 1) is approximately 10 fold. The “Δ Tm (°C) @300 µM” value in test [6] was more than 1 °C.

In the case of `O=C(O)[C@@H]1CCC[C@@H]1Nc1ncnc2[nH]ccc12` [Compound 19, (1R, 2S)-2-((7H-pyrrolo[2,3–d]pyrimidin-4-yl)amino)cyclopentane-1-carboxylic acid], in test [6], the “Δ Tm (°C) @300 µM” value was more than 1 °C.

For `CCOC(=O)[C@H](CC(C)C)Nc1ncnc2[nH]ccc12` [Compound 14b, Ethyl (7H-pyrrolo[2,3–d]pyrimidine-4-yl)-L-leucinate], the “SARS CoV2 Mac1 Alpha (IC50)” value in test [3] is “completely inactive”.

These data come from publication PMC9093066 (Bioorganic & Medicinal Chemistry, 2022).
